# Patent US20240316207A1, “SHP2 INHIBITOR, PHARMACEUTICAL COMPOSITION COMPRISING SAME AND APPLICATION THEREOF” (BEIJING TIDE PHARMACEUTICAQL CO., LTD., priority 2021, published 2024)
# Target: T1, SHP2 (Homo sapiens, UniProt Q06124)
# T1 construct: endogenous in cells; host or cells: MV411 (MV4-11) leukemia cells
# T1 sequence (Q06124 1-593): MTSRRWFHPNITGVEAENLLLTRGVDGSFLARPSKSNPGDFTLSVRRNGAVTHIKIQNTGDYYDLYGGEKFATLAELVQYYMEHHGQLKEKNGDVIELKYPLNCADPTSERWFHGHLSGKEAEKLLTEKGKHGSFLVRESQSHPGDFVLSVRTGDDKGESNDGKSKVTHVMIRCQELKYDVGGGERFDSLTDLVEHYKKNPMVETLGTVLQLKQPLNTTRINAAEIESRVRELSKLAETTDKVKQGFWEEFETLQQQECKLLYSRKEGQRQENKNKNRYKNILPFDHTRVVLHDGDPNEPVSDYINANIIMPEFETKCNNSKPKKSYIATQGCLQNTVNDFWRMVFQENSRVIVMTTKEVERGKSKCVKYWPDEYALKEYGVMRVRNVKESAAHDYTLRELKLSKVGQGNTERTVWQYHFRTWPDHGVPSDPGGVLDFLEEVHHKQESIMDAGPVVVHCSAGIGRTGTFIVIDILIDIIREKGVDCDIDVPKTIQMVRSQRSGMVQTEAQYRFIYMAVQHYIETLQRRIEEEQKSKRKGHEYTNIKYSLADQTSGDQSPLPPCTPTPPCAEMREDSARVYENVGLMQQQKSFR
# Assay: SHP2 degradation in MV411 cells (Western blot, SHP-2 antibody)
# Format: cell-based
# Details: MV 411 cells, 24 hours with compound, SHP2 protein level by Western blot
# Description: Reagent: complete DMEM medium, Gibco products. Fetal bovine serum, manufactured by ThermoFisher. Trypsin, manufactured by ThermoFisher. The SHP-2 antibody is produced by CST.
# Cell line, MV 411, the blast cells of patients with bi-phenotypic B-myelomonocytic leukemia, was established by Rovera.
# Measuring method: took the cells growing in the logarithmic phase, collected and suspended the cells in DMEM containing 10% fetal calf serum, gently blowed and beated the cells into single cell suspension by using a pipette, and counted the living cells under a microscope. […] Then cultured for 24 hours. All cells were collected and washed with PBS, lysed with RIPA lysate and collected into a 1.7 ml tube. […] metal bath for 5 minutes to fully denature the protein. 100V constant voltage electrophoresis after Western condensation and loading, stopped when bromophenol blue band reached the end point. The cellulose acetate membrane is transferred by a wet method, 45 minutes at a constant flow of 300-500 mA, 5% BSA is used for blocking for 1-2 hours at room temperature. Primary antibody of 1:500-1:8000 were used for incubation at 25° C. for 40 minutes and then washed three times. Secondary antibody was used for incubation for 15-40 min at room temperature. The proteins were detected using ultrasensitive ECL luminophores such as Enlight, using an X-Ray film automatic developing machine. See the statistical tables below, and FIGS. 1 and 2 for test results.
# Effective Concentration of the Compound of the Invention in the Cell Line for Inhibiting SHP2
row,Structure (SMILES),DC50
1,CCOc1cc(O)c(C(=O)/C=C/c2ccc(NCCOCCOCCOCCNc3cccc4c3C(=O)N(C3CCC(=O)NC3=O)C4=O)cc2Cl)cc1CN1CCC[C@H]1C(N)=O (stereo partly shown) [TDC.2001],128 nM
2,CCOc1cc(O)c(C(=O)/C=C/c2ccc(N3CCN(CCOCCOCCOc4cccc5c4C(=O)N(C4CCC(=O)N(COC(=O)C(C)(C)C)C4=O)C5=O)CC3)cc2Cl)cc1CN1CCCC(n2c(=O)[nH]c3ccccc32)C1 (stereo not shown) [TDC. 2020],13 nM
3,CCOc1cc(O)c(C/C=C/c2ccc(N3CCN(C(=O)CCCCCC(=O)Nc4cccc5c4C(=O)N(C4CCC(=O)NC4=O)C5=O)CC3)cc2Cl)cc1CN1CCCC(n2c(=O)[nH]c3ccccc32)C1 (stereo not shown) [TDC.2004],120 nM
4,CCOc1cc(O)c(C(=O)/C=C/c2ccc(NCCOCCOCCNc3cccc4c3C(=O)N(C3CCC(=O)NC3=O)C4=O)cc2Cl)cc1CN1CCC[C@H]1COC (stereo partly shown) [TDC.2008],215 nM
5,CCOc1cc(O)c(C(=O)/C=C/c2ccc(NCCOCCOCCNc3cccc4c3C(=O)N(C3CCC(=O)N(C(C)OC(=O)CC)C3=O)C4=O)cc2Cl)cc1CN1CCN(C)CC1 (stereo not shown) [TDC.2016],356 nM
6,CCOc1cc(O)c(C(=O)/C=C/c2ccc(NCCOCCOCCNc3cccc4c3C(=O)N(C3CCC(=O)NC3=O)C4=O)cc2Cl)cc1CN1CCN(C)CC1 (stereo not shown) [TDC.2005],321 nM
7,CCOc1cc(O)c(C(=O)/C=C/c2ccc(N3CCN(CCOCCOCCOc4cccc5c4C(=O)N(C4CCC(=O)NC4=O)C5=O)CC3)cc2Cl)cc1CN1CCC=C(n2c(=O)[nH]c3ccccc32)C1 (stereo not shown) [TDC.2010],81 nM
8,CCOc1cc(O)c(C(=O)/C=C/c2ccc(NCCOCCOCCOc3cccc4c3C(=O)N(C3CCC(=O)NC3=O)C4=O)cc2Cl)cc1CN1CCC[C@H]1COC (stereo partly shown) [TDC.2017],183 nM
9,CCOc1cc(O)c(C(=O)/C=C/c2ccc(N3CCN(CCOCCOCCOc4cccc5c4C(=O)N(C4CCC(=O)NC4=O)C5=O)CC3)cc2Cl)cc1CN1CCC[C@H]1C(N)=O (stereo partly shown) [TDC.2011],138 nM
10,CCOc1cc(O)c(C(=O)/C=C/c2ccc(NCCOCCOCCOCCOc3cccc4c3C(=O)N(C3CCC(=O)NC3=O)C4=O)cc2Cl)cc1CN1CCC[C@H]1C(N)=O (stereo partly shown) [TDC.2018],142 nM
11,CCOc1cc(O)c(C/C=C/c2ccc(N3CCN(C(=O)CCCCCCC(=O)Nc4cccc5c4C(=O)N(C4CCC(=O)NC4=O)C5=O)CC3)cc2Cl)cc1CN1CCC=C(n2c(=O)[nH]c3ccccc32)C1 (stereo not shown) [TDC.2003],52 nM
12,C=C/C(OCCOCCOCCN1CCN(c2ccc(/C=C/C(=O)c3cc(CN4CCC[C@H]4COC)c(OCC)cc3O)c(Cl)c2)CC1)=C1\C(=C)C(=O)N(C2CCC(=O)NC2=O)C1=O (stereo partly shown) [TDC.2013],203 nM
13,CCOc1cc(O)c(C(=O)/C=C/c2ccc(NCCOCCOCCCOCCNc3cccc4c3C(=O)N(C3CCC(=O)NC3=O)C4=O)cc2Cl)cc1CN1CCC=C(n2c(=O)[nH]c3ccccc32)C1 (stereo not shown) [TDC.2015],97 nM
14,CCOc1cc(O)c(C(=O)/C=C/c2ccc(N3CCN(CCOCCOCCOCCNc4cccc5c4C(=O)N(C4CCC(=O)NC4=O)C5=O)CC3)cc2Cl)cc1CN1CCCC(n2c(=O)[nH]c3ccccc32)C1 (stereo not shown) [TDC.2014],102 nM
15,CCOc1cc(O)c(C(=O)/C=C/c2ccc(NCCOCCOCCNc3cccc4c3C(=O)N(C3CCC(=O)NC3=O)C4=O)cc2Cl)cc1CN1CCOCC1 (stereo not shown) [TDC.2006],445 nM
16,CCOc1cc(O)c(C(=O)/C=C/c2ccc(NCCOCCOCCNc3cccc4c3C(=O)N(C3CCC(=O)NC3=O)C4=O)cc2Cl)cc1CN1CCNCC1 (stereo not shown) [TDC.2002],336 nM
17,CCOc1cc(O)c(C(=O)/C=C/c2ccc(N3CCN(CCOCCOCCOc4cccc5c4C(=O)N(C4CCC(=O)NC4=O)C5=O)CC3)cc2Cl)cc1CN1CCC[C@@H]1CO (stereo partly shown) [TDC.2012],10 nM
18,CCOc1cc(O)c(C(=O)/C=C/c2ccc(N3CCN(CCOCCOCCOc4cccc5c4C(=O)N(C4CCC(=O)NC4=O)C5=O)CC3)cc2Cl)cc1CN1CCCC(n2c(=O)[nH]c3ccccc32)C1 (stereo not shown) [TDC.2009],16 nM
19,CCOc1cc(O)c(C(=O)/C=C/c2ccc(NCCOCCOCCNc3cccc4c3C(=O)N(C3CCC(=O)NC3=O)C4=O)cc2Cl)cc1CN1CCC[C@H]1CO (stereo partly shown) [TDC.2007],125 nM
